# Active and inactive are the calls of the source. The calls are words filed in the database; no cut-off is given here.
# Experiments:
# [1] = Toxicity in BALB/c mouse xenografted with human MGC-803 cells assessed as body weight loss at 5 mg/kg,ip administrated for 21 consecutive days; assay type: organism-based; details: in vivo
# [2] = target: Signal transducer and activator of transcription 3 (Homo sapiens) (UniProt P40763); assay: In vivo inhibition of STAT3 in BALB/c mouse xenografted with human MGC-803 cells assessed as reduction of STAT3 phosphorylation level at Tyr705 in tumor at 5 mg/kg,ip administrated for 21 consecutive days by immunohistochemistry analysis; assay type: functional, organism-based
# Sequence of Signal transducer and activator of transcription 3 (Homo sapiens) (P40763 whole entry): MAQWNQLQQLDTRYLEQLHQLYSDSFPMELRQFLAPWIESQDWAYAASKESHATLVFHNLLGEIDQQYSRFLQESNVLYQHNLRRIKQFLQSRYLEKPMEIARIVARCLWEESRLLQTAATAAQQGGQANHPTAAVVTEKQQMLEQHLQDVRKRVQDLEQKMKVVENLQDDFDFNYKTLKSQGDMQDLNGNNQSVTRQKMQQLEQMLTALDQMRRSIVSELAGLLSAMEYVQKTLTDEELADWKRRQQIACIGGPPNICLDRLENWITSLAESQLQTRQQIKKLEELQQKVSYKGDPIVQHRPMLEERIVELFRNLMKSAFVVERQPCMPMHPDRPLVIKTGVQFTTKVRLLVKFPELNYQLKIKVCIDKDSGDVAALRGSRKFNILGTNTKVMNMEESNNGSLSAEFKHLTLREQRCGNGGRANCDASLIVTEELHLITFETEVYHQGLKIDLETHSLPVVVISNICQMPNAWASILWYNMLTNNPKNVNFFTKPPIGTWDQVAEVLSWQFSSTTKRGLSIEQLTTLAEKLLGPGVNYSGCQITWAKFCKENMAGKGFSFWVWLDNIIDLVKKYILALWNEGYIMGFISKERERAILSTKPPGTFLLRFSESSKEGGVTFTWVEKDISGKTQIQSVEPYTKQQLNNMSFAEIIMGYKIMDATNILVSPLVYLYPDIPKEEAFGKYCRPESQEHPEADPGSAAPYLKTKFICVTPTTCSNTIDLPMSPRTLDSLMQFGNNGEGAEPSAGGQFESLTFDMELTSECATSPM
# [3] = target: Signal transducer and activator of transcription 3 (Homo sapiens) (UniProt P40763); assay: Inhibition of STAT3 in human MGC-803 cells assessed as inhibition of total STAT3 protein level at 0.3 to 3 uM by western blot assay; assay type: cell-based; details: dose 0.3-3 µM
# [4] = Toxicity in BALB/c mouse xenografted with human MGC-803 cells assessed as morphological change in heart at 15 mg/kg,ip administrated for 21 consecutive days by hematoxylin and eosin staining method; assay type: organism-based; details: in vivo
# MGC-803 [5] = assay: Antitumor activity against human MGC-803 cells xenografted in BALB/c mouse assessed as inhibition of tumor weight at 5 to 15 mg/kg,ip administrated for 21 consecutive days; assay type: functional, organism-based; details: dose 5-15 mg/kg
# [6] = target: T1, Signal transducer and activator of transcription 1-alpha/beta (Homo sapiens) (UniProt P42224); assay: Inhibition of STAT1 in human AGS cells assessed as inhibition of STAT1 phosphorylation level at Tyr701 at 0.3 to 3 uM by western blot assay; assay type: cell-based; details: dose 0.3-3 µM
# T1 sequence (whole entry): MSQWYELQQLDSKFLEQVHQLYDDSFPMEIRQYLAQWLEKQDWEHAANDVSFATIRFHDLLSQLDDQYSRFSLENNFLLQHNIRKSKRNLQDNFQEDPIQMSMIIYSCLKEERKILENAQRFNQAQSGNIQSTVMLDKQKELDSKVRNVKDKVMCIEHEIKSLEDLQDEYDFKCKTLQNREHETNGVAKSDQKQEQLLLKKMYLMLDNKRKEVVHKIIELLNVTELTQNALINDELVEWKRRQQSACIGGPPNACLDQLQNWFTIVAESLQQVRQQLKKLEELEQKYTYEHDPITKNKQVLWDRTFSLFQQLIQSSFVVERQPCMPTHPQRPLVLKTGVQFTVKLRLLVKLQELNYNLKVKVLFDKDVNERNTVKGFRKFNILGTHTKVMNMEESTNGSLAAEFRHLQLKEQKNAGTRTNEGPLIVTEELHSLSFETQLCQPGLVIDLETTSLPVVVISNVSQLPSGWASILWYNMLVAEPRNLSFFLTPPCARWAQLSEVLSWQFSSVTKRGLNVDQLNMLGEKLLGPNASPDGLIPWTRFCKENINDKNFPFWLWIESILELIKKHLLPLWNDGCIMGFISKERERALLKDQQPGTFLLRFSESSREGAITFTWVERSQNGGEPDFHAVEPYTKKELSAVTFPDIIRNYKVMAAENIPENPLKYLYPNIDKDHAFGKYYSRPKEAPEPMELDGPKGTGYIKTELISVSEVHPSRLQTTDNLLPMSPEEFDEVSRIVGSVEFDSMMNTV
# [7] = Toxicity in BALB/c mouse xenografted with human MGC-803 cells assessed as morphological change in liver at 15 mg/kg,ip administrated for 21 consecutive days by hematoxylin and eosin staining method; assay type: organism-based; details: in vivo
# MGC-803 [8] = assay: Antitumor activity against human MGC-803 cells xenografted in BALB/c mouse assessed as inhibition of tumor volume at 5 to 15 mg/kg,ip administrated for 21 consecutive days; assay type: functional, organism-based; details: dose 5-15 mg/kg
# [9] = Toxicity in BALB/c mouse xenografted with human MGC-803 cells assessed as morphological change in lung at 15 mg/kg,ip administrated for 21 consecutive days by hematoxylin and eosin staining method; assay type: organism-based; details: in vivo
# AGS [10] = assay: Induction of apoptosis in human AGS cells assessed as viable cells at 1 uM incubated for 48 hrs by Annexin V-FITC/PI staining based flow cytometry method (reference value: 94.8 %); assay type: functional; details: read-out: Activity
# [11] = Metabolic stability in human liver microsomes assessed as half life; assay type: ADME, Microsome
# [12] = target: Signal transducer and activator of transcription 3 (Homo sapiens) (UniProt P40763); assay: Inhibition of STAT3 in human AGS cells assessed as inhibition of total STAT3 protein level at 0.3 to 3 uM by western blot assay; assay type: cell-based; details: dose 0.3-3 µM
# MGC-803 [13] = assay: Antitumor activity against human MGC-803 cells xenografted in BALB/c mouse assessed as reduction of Ki67 expression level in tumor at 15 mg/kg,ip administrated for 21 consecutive days by immunohistochemistry analysis; assay type: functional, organism-based
# AGS [14] = assay: Induction of apoptosis in human AGS cells assessed as necrotic cells at 3 uM incubated for 48 hrs by Annexin V-FITC/PI staining based flow cytometry method (reference value: 0.32 %); assay type: functional
# AGS [15] = assay: Induction of apoptosis in human AGS cells assessed as viable cells at 3 uM incubated for 48 hrs by Annexin V-FITC/PI staining based flow cytometry method (reference value: 94.8 %); assay type: functional; details: read-out: Activity
# [16] = target: Signal transducer and activator of transcription 3 (Homo sapiens) (UniProt P40763); assay: In vivo inhibition of STAT3 in BALB/c mouse xenografted with human MGC-803 cells assessed as reduction of c-Myc expression in tumor at 15 mg/kg,ip administrated for 21 consecutive days by immunohistochemistry analysis; assay type: functional, organism-based
# [17] = target: Signal transducer and activator of transcription 3 (Homo sapiens) (UniProt P40763); assay: Thermal stabilization of STAT3 in human AGS cells at 1 uM at 37 to 54 degreeC incubated for 1 hr by cellular thermal shift assay; assay type: cell-based
# AGS [18] = assay: Induction of apoptosis in human AGS cells assessed as necrotic cells at 1 uM incubated for 48 hrs by Annexin V-FITC/PI staining based flow cytometry method (reference value: 0.32 %); assay type: functional
# [19] = target: Signal transducer and activator of transcription 3 (Homo sapiens) (UniProt P40763); assay: In vivo inhibition of STAT3 in BALB/c mouse xenografted with human MGC-803 cells assessed as reduction of Mcl-1 expression in tumor at 5 mg/kg,ip administrated for 21 consecutive days by immunohistochemistry analysis; assay type: functional, organism-based
# [20] = target: Signal transducer and activator of transcription 3 (Homo sapiens) (UniProt P40763); assay: Inhibition of STAT3 in human MGC-803 cells assessed as inhibition of STAT3 phosphorylation level at Tyr705 at 0.3 to 3 uM by western blot assay; assay type: cell-based; details: dose 0.3-3 µM
# MGC-803 [21] = assay: Antitumor activity against human MGC-803 cells xenografted in BALB/c mouse assessed as tumor growth inhibition at 5 mg/kg,ip administrated for 21 consecutive days relative to control; assay type: functional; details: read-out: TGI
# [22] = target: Signal transducer and activator of transcription 3 (Homo sapiens) (UniProt P40763); assay: In vivo inhibition of STAT3 in BALB/c mouse xenografted with human MGC-803 cells assessed as reduction of Mcl-1 expression in tumor at 15 mg/kg,ip administrated for 21 consecutive days by immunohistochemistry analysis; assay type: functional, organism-based
smiles,measurement,setting,value
Cc1cc(NC(=O)c2ccc([N+](=O)[O-])o2)ccc1-c1cnc2ccccn12,Activity,[1],Non-Toxic
same,inhibition,[2],Active
same,inhibition,[3],inactive
same,Activity,[4],Non-Toxic
same,inhibition,MGC-803 [5],Dose-Dependent Effect
same,inhibition,[6],inactive
same,Activity,[7],Non-Toxic
same,inhibition,MGC-803 [8],Dose-Dependent Effect
same,Activity,[9],Non-Toxic
same,viability at 1 µM,AGS [10],92.1%
same,half-life,[11],41.2 min
same,inhibition,[12],inactive
same,inhibition,MGC-803 [13],Active
same,Activity,AGS [14],0.18%
same,viability at 3 µM,AGS [15],81.3%
same,inhibition,[16],Active
same,Activity,[17],Active
same,Activity,AGS [18],0.75%
same,inhibition,[19],Active
same,inhibition,[20],Dose-Dependent Effect
same,inhibition in vivo at 5 mg/kg,MGC-803 [21],47.1%
same,inhibition,[22],Active

# — ChEMBL document CHEMBL5247622, “Structural optimization of Imidazo[1, 2-a]pyridine derivatives for the treatment of gastric cancer via STAT3 signaling pathway” (Eur J Med Chem, 2022)
